This is an account of results in US20250057859A1, “CANNABICHROMENEQUINONE AND ANALOGUES THEREOF, AND METHOD OF USING COMPOSITIONS THEREOF AS ANTI-INFLAMMATORY AGENTS” (Juva Life, Inc., priority 2021, published 2025).

For assay [1], the target named is T1, Recombinant human ALOX15 (Arachidonate 15-Lipoxygenase) (Homo sapiens, UniProt P16050).
T1 construct: full length encompassing amino acids 2-662(end); FLAG (N); purchased BPS Biosciences 50220
T1 sequence (P16050 2-662): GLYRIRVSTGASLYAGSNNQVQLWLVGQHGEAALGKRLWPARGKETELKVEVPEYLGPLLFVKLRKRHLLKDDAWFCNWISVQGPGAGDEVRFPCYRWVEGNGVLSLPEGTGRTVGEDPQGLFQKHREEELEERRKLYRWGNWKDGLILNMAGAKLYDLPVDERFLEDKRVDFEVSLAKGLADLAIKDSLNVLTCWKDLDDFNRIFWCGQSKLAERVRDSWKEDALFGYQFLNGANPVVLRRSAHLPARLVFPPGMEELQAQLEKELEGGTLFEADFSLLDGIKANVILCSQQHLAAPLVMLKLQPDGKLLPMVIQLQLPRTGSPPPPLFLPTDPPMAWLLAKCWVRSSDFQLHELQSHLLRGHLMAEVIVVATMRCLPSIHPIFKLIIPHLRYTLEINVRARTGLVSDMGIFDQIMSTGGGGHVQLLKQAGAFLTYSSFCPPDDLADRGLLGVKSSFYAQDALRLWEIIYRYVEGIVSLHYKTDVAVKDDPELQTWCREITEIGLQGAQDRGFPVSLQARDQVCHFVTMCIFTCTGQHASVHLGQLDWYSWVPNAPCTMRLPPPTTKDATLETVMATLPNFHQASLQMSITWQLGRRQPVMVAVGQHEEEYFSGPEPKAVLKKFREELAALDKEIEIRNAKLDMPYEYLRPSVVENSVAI
Description: Biochemical LOX-15 assay. An excerpt: • Recombinant human ALOX15 (Arachidonate 15-Lipoxygenase), full length encompassing amino acids 2-662(end). In this construct the N-terminal end of ALOX15 is fused with a FLAG tag was obtained from BPS Biosciences (Cat #50220). • Dihydrorhodamine 123, DHR, was obtained from Sigma (Cat #1054) • Arachidonic acid, AA, was obtained from Sigma (Cat #A3611) • Other reagents: black 384 well assay plates were obtained from Corning (Cat #3820). • Equipment: Synergy Neo2 Multi-mode plate reader (Biotek), Labcyte 550 acoustic dispenser (Labcyte), Biomek FX robotic dispenser (Beckman Coulter), Sorvall Legend RT centrifuge (Kendro).
The LOX-15 assay was performed in assay buffer comprising: 50 mM Tris (pH 7.5),), 5 uM DHR, 50 uM AA, and 50 nM recombinant enzyme. Serially diluted compounds were prepared in DMSO in Echo qualified 384 well plates. An assay buffer was then prepared without supplemented 10 uM DHRA. 10 uL of the supplemented buffer was dispensed into control (no enzyme) wells in the black 384well assay plate. Next, a 2× enzyme solution was prepared, comprising 100 nM LOX-15 enzyme in the supplemented assay buffer. 10 uL of the 2× enzyme solution was then dispensed into test wells in the black 384well assay plate. Serially diluted compounds were added to the assay plate by acoustic dispensing (Labcyte 550). Control wells received DMSO only.
Next, the 2× substrate was prepared to comprise 100 uM arachidonic acid in the assay buffer. 10 uL of the 2× substrate was then added to all wells in the assay plate. The plate was incubated for 3 hours. The plate was read on Synergy Neo2 in fluorescence mode: excitation 485 nm, emission 530 nm. % inhibition and the resulting IC50 was calculated for the compound using the following equation:
[formula] • where RFU100% is fluorescence in control samples without compound, RFU0% is fluorescence in control samples without LOX-15, and RFUcompound fluorescence in a sample with compound.
(§1) The calculated %-Inh values were plotted against compound concentration. To determine IC50 values, dose-response curves were fitted by a 4-parameter sigmoid inhibition model using XLFit® software (IDBS).

In assay [2] the test system is IL-6. Description: IL-6 secretion assay in human PBMCs (LPS-stimulated, ELISA). Type of assay: cell-based. Conditions: PBMC, LPS 100 ng/mL 6 hr, read-out: IL6 inhibitory activity IC50. The procedure: Fetal bovine serum (FBS) was obtained from ThermoFisher (Cat #16000044). • Other reagents: 96well TC plates were obtained from ThermoFisher (Cat #07-2000-90). LPS was obtained from Sigma (Cat #L3024).
IL-6 was assessed using a standard ELISA protocol. Cryopreserved PBMCs were thawed in a water bath and transferred to 50 mL polypropylene tubes. The cells were washed two times with 25 mL of RPMI medium supplemented with 5% of heat-inactivated FBS and re-suspended at a density of 4.5^10^6 cells/mL. The cells were plated into 96 well TC late (100 uL/well). Serially diluted compound was added to the cells in duplicate wells for each concentration. Control wells received DMSO only (0.3% final). The cells were pre-incubated with compound for 1 hr. After pre-incubation, the cells were stimulated by LPS (100 ng/mL) for 6 hr. Control samples with and without LPS in the absence of compound were assembled in each test plate. IL-6 was detected in media supernatants by using a sandwich anti-IL-6 ELISA kit (BD Biosciences) according to protocol provided by the manufacturer. ELISA readout (optical density at 450 nm) is commensurable with the amount of IL-6 produced by the cells. Assay window was determined in each experiment by comparing average OD450 values in stimulated and un-stimulated samples in the absence of compound. ELISA calibration was performed in each detection plate using serially diluted recombinant human IL-6, to ensure that OD450 values for all test samples were within linear range of detection.%-Inhibition by compound was calculated using following equation:
[formula] • where OD450100% is optical density in control samples stimulated with LPS without compound, OD4500% is optical density in unstimulated control samples, and OD450compound is optical density in a sample stimulated with LPS in the presence of compound.
as §1

The mark [3] stands for this setting: 50 nM recombinant enzyme, 50 uM AA, read-out: 15-Lox inhibitory activity IC50.

Each structure is given as a SMILES string. Where two headings read alike, the source gives them in different places.

One may read the IC50 as the concentration at which inhibition is half-maximal. As for `CCCCCC1=C(NCCC)C(=O)C2=C(OC(C)(CCC=C(C)C)C=C2)C1=O` (stereo not shown) [Formula XXV], the values for the IC50 in assay [1] (setting [3]) and in assay [2] were 5.7 µM and 9.3 µM, respectively.
The matching figures for `CCCCCC1=CC(=O)C2=C(OC(C)(CCC=C(C)C)C=C2)C1=O` (stereo not shown) [Formula II]: 5.4 µM and 1.2 µM.
The matching figures for `CCCCCC1=CC(=O)C2=C(O[C@](C)(CCC=C(C)C)C=C2)C1=O` [Formula XXVI]: 1.93 µM and 1.07 µM.
The matching figures for `CCCCCc1cc(O)c2c(c1O)OC(C)(CCC=C(C)C)C=C2` (stereo not shown) [Formula XXII]: 1.22 µM and > 10 µM.
Take `CCCCCC1=C(NCC)C(=O)C2=C(OC(C)(CCC=C(C)C)C=C2)C1=O` (stereo not shown) [Formula XXVIII]: the concentration for half-maximal inhibition (IC50) in assay [1] (setting [3]) and in assay [2] was > 10 µM in each case.
On to `CC(C)=CCCC1(C)C=CC2=C(O1)C(=O)c1ccccc1C2=O` (stereo not shown) [Formula XXVII], for which the IC50 in assay [1] and in assay [2] was > 10 µM throughout.
In the case of `CCCCCc1cc(OC)c2c(c1OC)OC(C)(CCC=C(C)C)C=C2` (stereo not shown) [Formula XXIV], the values for the IC50 in assay [1] (setting [3]) and in assay [2] were > 10 µM and 14.4 µM, respectively.
The matching figures for `CCCCCc1cc(OC(C)=O)c2c(c1OC(C)=O)OC(C)(CCC=C(C)C)C=C2` (stereo not shown) [Formula XXIII]: > 10 µM and 8.7 µM.
